Laboratory results published in patent US20030216569A1, “Method of making HIV protease inhibitors” (priority 1993, published 2003).
≈ marks a conversion by molar mass, not a printed value. Where “and” joins values, the source holds several entries; their conditions need not be identical. Equal values may be shown once.

What was measured:
[1] = tested on: HIV-1 isolates IIIB and/or RF in MT-2 cells; assay: SRI primary anti-HIV screen, MTT assay of inhibition of HIV-induced cell killing in MT2 cells; format: cell-based; conditions: for IC50: Human immunodeficiency virus 1, IIIB, MT2, read-out: SRI MT2 IC50 ng/ml, MT2 cells; for SRI MT2 IC50: MT2 cells
Description: I. Primary Drug Screening of Anti-HIV Compounds at Southern Research Institute (SRI) (Results recorded in Table 1 are designated “SRI CEM (ng/ml)” or “SRI MT2 (ng/ml)”)
(§1) A. Principle of MTT Assay:
(§2) SRI has an established program for the primary antiviral analysis of compounds in microtiter assays which measures the ability of a selected compound to inhibit HIV-induced cell killing. This assay involves the conversion of the tetrazolium dye MTT to a colored formazan product by mitochondrial enzymes in metabolically active cells. This assay system is used at SRI to screen over 30,000 compounds per year. Briefly, the assay involves the infection of CEM or MT2 cells in round bottom 96-well plates. The compound of interest is added just prior to infection. Following 6 days of incubation at 37° C. the plates are stained with MTT. The results of the assay are quantitated spectrophotometrically on a Molecular Devices Vmax plate reader. The data are analyzed by linear regression utilizing an in-house software program to calculate antiviral activity (IC25, IC50, IC95) and toxicity (TC25, TC50, TC95) as well as other values.
(§3) Primary antiviral assays are routinely performed in CEM or MT-2 cells.
(§4) B. Standard Screening Assays in CEM and MT-2 Cells
(§5) 1. Compound dilution and delivery to the plates
Drugs are solubilized in the appropriate vehicle such as distilled water or DMSO if necessary. Latex gloves, lab coats and masks are used during all phases of the handling process to prevent exposure to potentially harmful agents. The drug is prepared at the appropriate concentration and stored at −20° C. until used by the screening laboratory. The first dilution of each compound is made in a dilution tube with medium to yield a concentration two-fold that of the highest test concentration. Sterile titer tubes are then used to make serial one half-log dilutions of each compound. Following drug dilution, the diluted compound is added to the appropriate well of a 96-well microtiter plate. […] When testing includes only six dilutions, two drugs can be assayed on a single microtiter plate. The drugs are added to the plate in a final volume of 100 microliters.
(§6) During the time the drug dilutions are prepared, cells are washed and counted. Viability is monitored by trypan blue dye exclusion and assays are not performed if the viability falls below 90%. Cells are maintained in an exponential growth phase and are split 1:2 on the day prior to assay to assure exponential growth rate.
(§7) For the primary screen, the cell lines utilized are CEM and MT-2. Unless otherwise indicated, the medium used is RPMI 1640 with 10% heat-inactivated fetal calf serum (FBS), glutamine and antibiotics.
(§8) Cells are propagated at 37° C. in an atmosphere of 5% CO2 in air. The virus employed for this work is HIV-1 isolates IIIB and/or RF, which are prepared by an acute infection process.
(§9) Briefly, virus-infected cells are pelleted on a daily basis beginning at three days post-infection until the virus has killed all of the cells in the culture. Reverse transcriptase activity and p24 ELISA are used to identify pools with the greatest amout of virus.
(§10) These 24-hour harvests are pooled, filtered and frozen at −90° C. Prior to use in the assay, the infectious pool of virus is titered on all available cell lines in order to determine the amount of virus required in the antiviral assay.
In general, pools produced by the acute infection method require the addition of one microliter of infectious virus per well resulting in the screening of drugs at a multiplicity of infection of 0.01. In this manner, enough virus is prepared and frozen to complete over one thousand microtiter plates, allowing the testing of up to two thousand compounds from a single stock of infectious virus. The use of a single stock of virus for a long period of testing has very favorable effects on the repeatability of the assay systems. […]

[2] = tested on: HIV-1 isolates IIIB and/or RF in CEM cells; assay: SRI primary anti-HIV screen, MTT assay of inhibition of HIV-induced cell killing in CEM cells; format: cell-based; conditions: for IC50: Human immunodeficiency virus 1, IIIB, CCRF-CEM, read-out: SRI CEM IC50 ng/mL, CEM cells
Description: as §1
as §2, with “This” for “SRI has an established program for the primary antiviral analysis of compounds in microtiter assays which measures the ability of a selected compound to inhibit HIV-induced cell killing. This”
as §3, §4, §5
Drugs are solubilized in the appropriate vehicle such as distilled water or DMSO if necessary. Latex gloves, lab coats and masks are used during all phases of the handling process to prevent exposure to potentially harmful agents. The drug is prepared at the appropriate concentration and stored at −20° C. until used by the screening laboratory. The first dilution of each compound is made in a dilution tube with medium to yield a concentration two-fold that of the highest test concentration. Sterile titer tubes are then used to make serial one half-log dilutions of each compound. Following drug dilution, the diluted compound is added to the appropriate well of a 96-well microtiter plate. Up to 12 dilutions can be assayed conveniently in triplicate on a single plate with all appropriate controls including cell control, virus control, toxicity control, drug color control, medium control and plastic (background) control. When testing includes only six dilutions, two drugs can be assayed on a single microtiter plate. The drugs are added to the plate in a final volume of 100 microliters.
as §6, §7, §8, §9, §10
In general, pools produced by the acute infection method require the addition of one microliter of infectious virus per well resulting in the screening of drugs at a multiplicity of infection of 0.01. In this manner, enough virus is prepared and frozen to complete over one thousand microtiter plates, allowing the testing of up to two thousand compounds from a single stock of infectious virus.
Virus infection of the CEM and MT-2 cells for the antiviral assay is carried out in a bulk infection process.

With `Cc1c(O)cccc1C(=O)NC(CSc1ccc2ccccc2c1)C(O)CN1CC2CCCCC2CC1C(=O)NC(C)(C)C` (stereo not drawn) [Example 24, [3S-(3R*,4aR*,8aR*,2′S*,3′R*)]-2-[2′-Hydroxy-3′-(naphth-2-ylthiomethyl)-4′-aza-5′-oxo-5′-(2″-methyl-3″-hydroxyphenyl)pentyl] decahydroisoquinoline-3-N-t-butylcarboxamide] as the molecule, how does the IC50 [1] read?
Its IC50 is 41.4 ng/mL (≈ 0.067 µM).

And the “SRI MT2 IC50” value [1]?
Its value is 0.0464 µg/mL.

And the IC50 [2]?
The IC50 was 67 ng/mL (≈ 0.108 µM).

`Cc1c(O)cccc1C(=O)N[C@@H](CSc1ccc2ccccc2c1)[C@H](O)CN1CCCC[C@H]1C(=O)NC(C)(C)C` [Example 25, [2S-(2R*,2′S*,3′S*)]-1-[2′-Hydroxy-3′-(naphth-2-ylthiomethyl-4′-aza-5′-oxo-5′-(2″-methyl-3″-hydroxyphenyl)pentyl]piperidine-2-N-t-butylcarboxamide] was tested. Which IC50 [1] did it give?
Its IC50 is 169 ng/mL (≈ 0.3 µM).

What about the IC50 [2] of the same molecule?
The IC50 was 211 ng/mL (≈ 0.374 µM).

For `Cc1c(O)cccc1C(=O)N[C@@H](Cc1ccccc1)[C@H](O)CN1CCN(Cc2cccnc2)C[C@H]1C(=O)NC(C)(C)C` [Example 26, [2S-(2R*,2′S*,3′R*)]-1-[2′-Hydroxy-3′-phenylmethyl-4′-aza-5′-oxo-5′-(2″-methyl-3″-hydroxyphenyl)pentyl]-4-(pyrid-3′″-ylmethyl) piperazine-2-N-t-butylcarboxamide], which IC50 [1] is on record?
Its IC50 is 49 ng/mL (≈ 0.0854 µM).

What about the IC50 [2] of the same molecule?
The IC50 was 49.7 ng/mL (≈ 0.0866 µM).

For “[3S-(3R*,4aR*,8aR*,2′S*,3′S*)]-2-[2′-Hydroxy-3′-phenylmethyl-4′-aza-5′-oxo-5′-[2″-methyl-3″-N-(methylsulfonyl)amino-phenyl)]pentyl] decahydroisoguinoline-3-N-t-butylcarboxamide [Example 36]”, which “SRI MT2 IC50” value [1] is on record?
The value was 1.87 µg/mL and 2.3 µg/mL.

And the “SRI CEM IC50” value ([2]; CEM cells)?
The value was 2.43 µg/mL and 1.73 µg/mL.
